Test results taken from the supplement of paper PMC6045584.
± gives the standard deviation of the averaged measurements.

Experiments:
[1] = compound: COc1cc([C@@H]2c3cc4c(cc3[C@@H](O[C@@H]3O[C@@H]5CO[C@@H](C)O[C@H]5[C@H](O)[C@H]3O)[C@H]3COC(=O)[C@H]23)OCO4)cc(OC)c1O [ETOPOSIDE]; assay: surviving fraction relative to DMSO-only wells; higher = less growth inhibition; conditions: exposure time: 5 days
Outline: (§1)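 Tumour cell lines were seeded in log phase at 250–500 cells per well into 384-well plates. Starting 24 hours later, inhibitors were present continuously for five days at 0.5, 1, 5, 10, 50, 100, 500 and 1000 nM. Surviving fraction, from CellTiter-Glo luminescence, is normalised to the median of DMSO-only wells. Three screens per line were required, with replicate Pearson r >0.7 and median Z' >0.3 for a line to be kept.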

[2] = compound: Cc1nc(Nc2n[nH]c3c2CN(C(=O)N[C@H](CN(C)C)c2ccccc2)C3(C)C)c2sccc2n1; assay: as above; conditions: exposure time: 5 days
Outline: as §1

Test System	surviving fraction ([1]; 0.5 nM)	surviving fraction ([1]; 1 nM)	surviving fraction ([1]; 5 nM)	surviving fraction ([1]; 10 nM)	surviving fraction ([1]; 50 nM)	surviving fraction ([1]; 100 nM)	surviving fraction ([1]; 500 nM)	surviving fraction ([1]; 1000 nM)	surviving fraction ([2]; 0.5 nM)	surviving fraction ([2]; 1 nM)	surviving fraction ([2]; 5 nM)	surviving fraction ([2]; 10 nM)	surviving fraction ([2]; 50 nM)	surviving fraction ([2]; 100 nM)	surviving fraction ([2]; 500 nM)	surviving fraction ([2]; 1000 nM)
OSHN BONE	1.05 ± 0.025	1.05 ± 0.042	1.06 ± 0.046	1.06 ± 0.041	1.07 ± 0.042	1.07 ± 0.048	0.452 ± 0.042	0.174 ± 0.0076	1.06 ± 0.037	1.01 ± 0.019	0.4963 ± 0.004	0.361 ± 0.026	0.31 ± 0.017	0.347 ± 0.031	0.366 ± 0.015	0.279 ± 0.018
PCI30 HEADNECK	0.943 ± 0.1	1.03 ± 0.025	1.02 ± 0.09	1 ± 0.041	1.07 ± 0.05	1.01 ± 0.053	0.579 ± 0.063	0.424 ± 0.031	0.882 ± 0.021	0.823 ± 0.028	0.579 ± 0.015	0.599 ± 0.038	0.538 ± 0.022	0.514 ± 0.024	0.344 ± 0.014	0.0833 ± 0.019
RDES SOFT TISSUE	1.08 ± 0.022	1.16 ± 0.21	1.1 ± 0.11	1.11 ± 0.071	0.854 ± 0.21	1.15 ± 0.3	0.232 ± 0.03	0.0647 ± 0.0021	0.764 ± 0.075	0.577 ± 0.1	1.16 ± 0.32	1.02 ± 0.14	0.756 ± 0.037	0.763 ± 0.1	0.525 ± 0.044	0.503 ± 0.094
S68 BREAST	0.939 ± 0.27	1.1 ± 0.18	1.01 ± 0.072	1.44 ± 0.12	1.07 ± 0.22	0.776 ± 0.095	0.369 ± 0.016	0.297 ± 0.024	1.04 ± 0.21	0.77 ± 0.013	0.481 ± 0.066	0.321 ± 0.04	0.288 ± 0.081	0.318 ± 0.0098	0.25 ± 0.014	0.234 ± 0.017
SAOS2 BONE	1.03 ± 0.027	1.06 ± 0.028	1.17 ± 0.02	1.16 ± 0.049	1.13 ± 0.035	1.147 ± 0.011	0.783 ± 0.04	0.439 ± 0.022	0.797 ± 0.0017	0.645 ± 0.062	0.509 ± 0.016	0.4777 ± 0.004	0.42 ± 0.019	0.376 ± 0.025	0.12 ± 0.018	0.034 ± 0.0017
SCC36 HEADNECK	1.13 ± 0.12	1.05 ± 0.18	1.1 ± 0.12	1.08 ± 0.1	1.02 ± 0.052	1.15 ± 0.086	0.668 ± 0.035	0.512 ± 0.0061	0.862 ± 0.084	0.681 ± 0.052	0.258 ± 0.011	0.188 ± 0.019	0.152 ± 0.011	0.164 ± 0.029	0.101 ± 0.0062	0.106 ± 0.0084
SCC47 HEADNECK	1.04 ± 0.11	1.05 ± 0.039	1.02 ± 0.025	1.08 ± 0.079	1.11 ± 0.071	1.06 ± 0.084	0.799 ± 0.07	0.575 ± 0.027	1.06 ± 0.018	1.08 ± 0.033	0.815 ± 0.029	0.664 ± 0.074	0.47 ± 0.018	0.432 ± 0.044	0.292 ± 0.03	0.135 ± 0.023
SCC90 HEADNECK	1.02 ± 0.099	1.11 ± 0.12	1.18 ± 0.092	1.2 ± 0.2	1.22 ± 0.15	1.13 ± 0.13	0.999 ± 0.18	0.878 ± 0.21	0.981 ± 0.092	0.893 ± 0.19	0.516 ± 0.016	0.523 ± 0.027	0.488 ± 0.04	0.467 ± 0.028	0.185 ± 0.016	0.177 ± 0.034
SG27 HEADNECK	1.12 ± 0.081	1.05 ± 0.11	0.975 ± 0.12	1.05 ± 0.14	1.08 ± 0.15	1.04 ± 0.037	1.09 ± 0.14	0.985 ± 0.14	0.936 ± 0.024	0.931 ± 0.029	0.64 ± 0.069	0.612 ± 0.066	0.408 ± 0.069	0.373 ± 0.053	0.199 ± 0.046	0.115 ± 0.01
SG28 HEADNECK	1.18 ± 0.046	1.19 ± 0.063	1.13 ± 0.075	1.15 ± 0.044	1.07 ± 0.2	1.09 ± 0.093	1.05 ± 0.029	0.969 ± 0.11	0.97 ± 0.064	1 ± 0.056	0.818 ± 0.009	0.716 ± 0.039	0.667 ± 0.051	0.523 ± 0.063	0.186 ± 0.0036	0.049 ± 0.0053
SG31 HEADNECK	1.05 ± 0.092	1.06 ± 0.04	1.1 ± 0.11	1.13 ± 0.14	0.946 ± 0.11	0.969 ± 0.11	0.856 ± 0.087	0.837 ± 0.058	0.947 ± 0.073	1.01 ± 0.088	0.671 ± 0.076	0.909 ± 0.17	0.456 ± 0.0092	0.609 ± 0.067	0.241 ± 0.024	0.344 ± 0.033
SG32 HEADNECK	1.23 ± 0.076	1.3 ± 0.13	1.37 ± 0.11	1.2 ± 0.17	1.1 ± 0.098	1 ± 0.14	0.726 ± 0.042	0.608 ± 0.11	1.04 ± 0.29	0.756 ± 0.027	0.363 ± 0.013	0.247 ± 0.017	0.206 ± 0.014	0.148 ± 0.021	0.0707 ± 0.012	0.041 ± 0.011
SG43 HEADNECK	1.02 ± 0.13	1.02 ± 0.21	0.933 ± 0.24	0.832 ± 0.23	0.876 ± 0.031	0.645 ± 0.11	0.894 ± 0.07	0.644 ± 0.064	1.23 ± 0.11	1.11 ± 0.22	0.921 ± 0.13	0.784 ± 0.34	1.14 ± 0.2	0.959 ± 0.16	0.971 ± 0.055	1.35 ± 0.2
SIHA CERVIX	1.07 ± 0.041	1.036 ± 0.0067	1.08 ± 0.12	1.11 ± 0.069	1.12 ± 0.049	1.16 ± 0.11	0.863 ± 0.058	0.684 ± 0.018	0.827 ± 0.039	0.689 ± 0.052	0.555 ± 0.023	0.487 ± 0.026	0.419 ± 0.0098	0.391 ± 0.0081	0.262 ± 0.031	0.146 ± 0.017
SJSA1 BONE	1.04 ± 0.022	1.04 ± 0.058	1.06 ± 0.036	1.01 ± 0.024	1.05 ± 0.03	1.02 ± 0.076	0.71 ± 0.0095	0.503 ± 0.0085	0.972 ± 0.02	0.901 ± 0.011	0.747 ± 0.018	0.696 ± 0.057	0.448 ± 0.015	0.393 ± 0.025	0.289 ± 0.007	0.243 ± 0.0072
SKBR3 BREAST	1.07 ± 0.027	1.06 ± 0.099	1.1 ± 0.15	1.03 ± 0.12	1.12 ± 0.11	1.05 ± 0.084	0.66 ± 0.068	0.478 ± 0.12	0.895 ± 0.11	0.834 ± 0.079	0.49 ± 0.027	0.498 ± 0.026	0.454 ± 0.063	0.419 ± 0.045	0.344 ± 0.021	0.1 ± 0.011
SNU475 LIVER	1.02 ± 0.05	0.999 ± 0.11	1 ± 0.039	1.03 ± 0.042	0.9937 ± 0.0049	0.957 ± 0.066	0.835 ± 0.042	0.571 ± 0.062	0.974 ± 0.027	0.918 ± 0.067	0.724 ± 0.06	0.633 ± 0.032	0.509 ± 0.0096	0.467 ± 0.024	0.393 ± 0.015	0.244 ± 0.015
SUM44 BREAST	1.03 ± 0.026	1.05 ± 0.034	1.05 ± 0.046	1.06 ± 0.027	1.09 ± 0.043	1.11 ± 0.062	0.928 ± 0.082	0.913 ± 0.036	1.08 ± 0.03	1.05 ± 0.065	1 ± 0.039	0.972 ± 0.041	0.983 ± 0.059	0.929 ± 0.038	0.735 ± 0.023	0.541 ± 0.023
SUM149 BREAST	1.16 ± 0.04	1.17 ± 0.061	1.21 ± 0.048	1.13 ± 0.077	0.753 ± 0.044	0.563 ± 0.025	0.156 ± 0.0049	0.153 ± 0.0044	0.863 ± 0.011	1.01 ± 0.02	0.178 ± 0.014	0.365 ± 0.037	0.124 ± 0.0069	0.145 ± 0.011	0.0783 ± 0.0083	0.117 ± 0.013
SUM149.B1*.S BREAST	1.1 ± 0.042	1.1 ± 0.053	1.11 ± 0.017	1.12 ± 0.07	1.08 ± 0.03	1.043 ± 0.0053	0.445 ± 0.0065	0.343 ± 0.013	1.05 ± 0.021	1.04 ± 0.013	0.473 ± 0.02	0.817 ± 0.017	0.279 ± 0.032	0.748 ± 0.032	0.24 ± 0.0095	0.691 ± 0.046
SUM159 BREAST	1.14 ± 0.18	1.08 ± 0.08	1.1 ± 0.11	1.07 ± 0.058	1.06 ± 0.055	0.977 ± 0.079	0.364 ± 0.086	0.187 ± 0.027	1.13 ± 0.2	1.15 ± 0.2	1.15 ± 0.21	1.1 ± 0.18	0.554 ± 0.027	0.407 ± 0.026	0.369 ± 0.028	0.292 ± 0.0093
